For one assay, the target named is T1, human Chk1 kinase (Homo sapiens, UniProt O14757).
T1 sequence (O14757 1-476): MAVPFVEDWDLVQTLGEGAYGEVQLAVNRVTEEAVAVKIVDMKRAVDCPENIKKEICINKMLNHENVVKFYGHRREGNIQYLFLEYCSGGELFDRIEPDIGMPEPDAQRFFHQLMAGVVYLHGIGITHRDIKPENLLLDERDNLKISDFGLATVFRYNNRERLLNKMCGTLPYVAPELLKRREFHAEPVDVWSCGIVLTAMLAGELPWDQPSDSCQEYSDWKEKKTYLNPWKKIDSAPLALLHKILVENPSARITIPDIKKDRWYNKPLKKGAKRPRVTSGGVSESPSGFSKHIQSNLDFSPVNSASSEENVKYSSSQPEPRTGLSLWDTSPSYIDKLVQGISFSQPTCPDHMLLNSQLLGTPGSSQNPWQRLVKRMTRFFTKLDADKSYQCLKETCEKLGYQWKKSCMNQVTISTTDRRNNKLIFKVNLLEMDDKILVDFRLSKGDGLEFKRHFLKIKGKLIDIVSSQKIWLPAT
In words: biochemical.

A further assay concerns the target human Chk2 kinase (Homo sapiens, UniProt O96017). In words: biochemical.

human Chk2 kinase, sequence (O96017 whole entry): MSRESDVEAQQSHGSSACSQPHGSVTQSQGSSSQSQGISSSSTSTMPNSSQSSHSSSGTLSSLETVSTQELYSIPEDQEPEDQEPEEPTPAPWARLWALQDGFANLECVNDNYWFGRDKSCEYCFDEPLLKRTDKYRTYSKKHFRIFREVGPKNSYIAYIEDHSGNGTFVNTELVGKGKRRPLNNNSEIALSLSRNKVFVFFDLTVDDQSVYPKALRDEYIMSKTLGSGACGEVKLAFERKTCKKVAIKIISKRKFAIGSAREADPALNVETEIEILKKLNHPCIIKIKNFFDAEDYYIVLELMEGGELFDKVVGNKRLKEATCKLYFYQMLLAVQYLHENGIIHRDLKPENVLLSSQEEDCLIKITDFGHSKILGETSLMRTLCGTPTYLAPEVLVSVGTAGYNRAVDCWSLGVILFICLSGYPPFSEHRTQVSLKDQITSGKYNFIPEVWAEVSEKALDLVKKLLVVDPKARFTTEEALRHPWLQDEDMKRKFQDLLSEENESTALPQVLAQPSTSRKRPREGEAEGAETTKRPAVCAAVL

As a reminder, the IC50 is the point on the concentration scale where inhibition reaches its midpoint. `CN1CCOC(c2ccc(-n3cnc(Nc4cnc(C#N)cn4)c3)cc2)C1` (single isomer, unassigned) [Example 105, 5-((1-(4-(4-Methylmorpholin-2-yl)phenyl)-1H-imidazol-4-yl)amino)pyrazine-2-carbonitrile]: the results for the IC50 on human Chk1 kinase and against human Chk2 kinase were 31.6 to 100 nM and 10000 to 100000 nM, respectively.
The like results for `CN(C)CC1CN(c2cccc(-n3cnc(Nc4cnc(C#N)cn4)c3)c2)CCO1` (single isomer, unassigned) [Example 107, 5-((1-(3-(2-((Dimethylamino)methyl)morpholino)phenyl)-1H-imidazol-4-yl)amino)pyrazine-2-carbonitrile] were, in that order, 31.6 to 100 nM and 10000 to 100000 nM.
The like results for `CN(CCO)C1CCN(c2cccc(-n3cnc(Nc4cnc(C#N)cn4)c3)c2)C1` (single isomer, unassigned) [Example 109, 5-((1-(3-(3-((2-Hydroxyethyl)(methyl)amino)pyrrolidin-1-yl)phenyl)-1H-imidazol-4-yl)amino)pyrazine-2-carbonitrile] were, in that order, 10 to 31.6 nM and greater than 100000 nM.
The like results for `CN(C)C1CCCN(c2cccc(-n3cnc(Nc4cnc(C#N)cn4)c3)c2)C1` (single isomer, unassigned) [Example 111, 5-((1-(3-(3-(Dimethylamino)piperidin-1-yl)phenyl)-1H-imidazol-4-yl)amino)pyrazine-2-carbonitrile] were, in that order, 31.6 to 100 nM and 10000 to 100000 nM.
As to `N#Cc1cnc(Nc2cn(-c3ccc(N4CCC(N5CCC5)C4)cc3)cn2)cn1` (single isomer, unassigned) [Example 114, 5-((1-(4-(3-(Azetidin-1-yl)pyrrolidin-1-yl)phenyl)-1H-imidazol-4-yl)amino)pyrazine-2-carbonitrile], the results for the IC50 against human Chk1 kinase and against human Chk2 kinase were less than 10 nM and 1000 to 10000 nM, respectively.
Compound `CN(C)CC1CCN(c2ccc(-n3cnc(Nc4cnc(C#N)cn4)c3)cc2)C1` (single isomer, unassigned) [Example 115, 5-((1-(4-(3-((Dimethylamino)methyl)pyrrolidin-1-yl)phenyl)-1H-imidazol-4-yl)amino)pyrazine-2-carbonitrile] came in with an IC50 at human Chk1 kinase of 31.6 to 100 nM.
With `N#Cc1cnc(Nc2cn(-c3ccc(N4CCN5CCCC5C4)cc3)cn2)cn1` (single isomer, unassigned) [Example 117, 5-((1-(4-(Hexahydropyrrolo[1,2-a]pyrazin-2(1H)-yl)phenyl)-1H-imidazol-4-yl)amino)pyrazine-2-carbonitrile], the IC50 at human Chk1 kinase was 10 to 31.6 nM; against human Chk2 kinase, greater than 100000 nM.
Turning to `CN1CCC2(CCN2c2ccc(-n3cnc(Nc4cnc(C#N)cn4)c3)cc2)C1` (single isomer, unassigned) [Example 119, 5-((1-(4-(6-Methyl-1,6-diazaspiro[3.4]octan-1-yl)phenyl)-1H-imidazol-4-yl)amino)pyrazine-2-carbonitrile], the IC50 at human Chk1 kinase is 10 to 31.6 nM; at human Chk2 kinase, 10000 to 100000 nM.
The like results for `CN(C)C1CCCN(c2ccc(-n3cnc(Nc4cnc(C#N)cn4)c3)cc2)C1` (single isomer, unassigned) [Example 121, 5-((1-(4-(3-(Dimethylamino)piperidin-1-yl)phenyl)-1H-imidazol-4-yl)amino)pyrazine-2-carbonitrile] were, in that order, less than 10 nM and greater than 100000 nM.
The like results for `CN(C)C1CCCN(c2ccc(-n3cnc(Nc4cnc(C#N)cn4)c3)cc2)C1` (single isomer, unassigned) [Example 122, 5-((1-(4-(3-(Dimethylamino)piperidin-1-yl)phenyl)-1H-imidazol-4-yl)amino)pyrazine-2-carbonitrile] were, in that order, 10 to 31.6 nM and 10000 to 100000 nM.
Take `CC1(C)CN(C2CCN(c3ccc(-n4cnc(Nc5cnc(C#N)cn5)c4)cc3)C2)C1` (single isomer, unassigned) [Example 123, 5-((1-(4-(3-(3,3-Dimethylazetidin-1-yl)pyrrolidin-1-yl)phenyl)-1H-imidazol-4-yl)amino)pyrazine-2-carbonitrile]: the figures for the IC50 against human Chk1 kinase and at human Chk2 kinase were 10 to 31.6 nM and greater than 100000 nM, respectively.
The like results for `CC1CN(C2CCN(c3ccc(-n4cnc(Nc5cnc(C#N)cn5)c4)cc3)C2)C1` (single isomer, unassigned) [Example 125, 5-((1-(4-(3-(3-Methylazetidin-1-yl)pyrrolidin-1-yl)phenyl)-1H-imidazol-4-yl)amino)pyrazine-2-carbonitrile] were, in that order, 10 to 31.6 nM and 1000 to 10000 nM.
As for `CN1CCC12CCN(c1ccc(-n3cnc(Nc4cnc(C#N)cn4)c3)cc1)C2` (single isomer, unassigned) [Example 127, 5-((1-(4-(1-Methyl-1,6-diazaspiro[3.4]octan-6-yl)phenyl)-1H-imidazol-4-yl)amino)pyrazine-2-carbonitrile], the IC50 on human Chk1 kinase was 10 to 31.6 nM; against human Chk2 kinase, greater than 100000 nM.
As to `N#Cc1cnc(Nc2cn(-c3ccc(N4CCC(N5CC(F)C5)C4)cc3)cn2)cn1` (single isomer, unassigned) [Example 129, 5-((1-(4-(3-(3-Fluoroazetidin-1-yl)pyrrolidin-1-yl)phenyl)-1H-imidazol-4-yl)amino)pyrazine-2-carbonitrile], the values for the IC50 on human Chk1 kinase and on human Chk2 kinase were 31.6 to 100 nM and greater than 100000 nM, respectively.
The like results for `N#Cc1cnc(Nc2cn(-c3ccc(N4CCC(N5CC(F)C5)C4)cc3)cn2)cn1` (single isomer, unassigned) [Example 130, 5-((1-(4-(3-(3-Fluoroazetidin-1-yl)pyrrolidin-1-yl)phenyl)-1H-imidazol-4-yl)amino)pyrazine-2-carbonitrile] were, in that order, 10 to 31.6 nM and 1000 to 10000 nM.
The like results for `N#Cc1cnc(Nc2cn(-c3ccc(N4CCC(N5CC6(CCC6)C5)C4)cc3)cn2)cn1` (single isomer, unassigned) [Example 131, 5-((1-(4-(3-(2-Azaspiro[3.3]heptan-2-yl)pyrrolidin-1-yl)phenyl)-1H-imidazol-4-yl)amino)pyrazine-2-carbonitrile] were, in that order, 10 to 31.6 nM and 1000 to 10000 nM.
As for `CC(C)C1CN(C2CCN(c3ccc(-n4cnc(Nc5cnc(C#N)cn5)c4)cc3)C2)C1` (single isomer, unassigned) [Example 133, 5-((1-(4-(3-(3-Isopropylazetidin-1-yl)pyrrolidin-1-yl)phenyl)-1H-imidazol-4-yl)amino)pyrazine-2-carbonitrile], the half-inhibitory concentration (IC50) against human Chk1 kinase is less than 10 nM; at human Chk2 kinase, 10000 to 100000 nM.
The like results for `CC(C)C1CN(C2CCN(c3ccc(-n4cnc(Nc5cnc(C#N)cn5)c4)cc3)C2)C1` (single isomer, unassigned) [Example 134, 5-((1-(4-(3-(3-Isopropylazetidin-1-yl)pyrrolidin-1-yl)phenyl)-1H-imidazol-4-yl)amino)pyrazine-2-carbonitrile] were, in that order, 10 to 31.6 nM and greater than 100000 nM.
`C[C@@H]1CCN1C1CCN(c2ccc(-n3cnc(Nc4cnc(C#N)cn4)c3)cc2)C1` (single isomer, unassigned) [Example 135]: the IC50 fell in the range of 10 to 31.6 nM against human Chk1 kinase and 10000 to 100000 nM against human Chk2 kinase.
The like results for `C[C@@H]1CCN1C1CCN(c2ccc(-n3cnc(Nc4cnc(C#N)cn4)c3)cc2)C1` (single isomer, unassigned) [Example 136] were, in that order, 31.6 to 100 nM and greater than 100000 nM.
The like results for `C[C@H]1CCN1C1CCN(c2ccc(-n3cnc(Nc4cnc(C#N)cn4)c3)cc2)C1` (single isomer, unassigned) [Example 137] were, in that order, 10 to 31.6 nM and greater than 100000 nM.
Take `CN1CC2(C1)CN(c1ccc(-n3cnc(Nc4cnc(C#N)cn4)c3)cc1)C2` [Example 11, 5-((1-(4-(6-Methyl-2,6-diazaspiro[3.3]heptan-2-yl)phenyl)-1H-imidazol-4-yl)amino)pyrazine-2-carbonitrile]: the IC50 against human Chk1 kinase was 10 to 31.6 nM.
As to `CN(C)[C@H]1CCN(c2ccc(-n3cnc(Nc4cnc(C#N)cn4)c3)cc2)C1` [Example 15, (S)-5-((1-(4-(3-(Dimethylamino)pyrrolidin-1-yl)phenyl)-1H-imidazol-4-yl)amino)pyrazine-2-carbonitrile], the IC50 against human Chk1 kinase lay within 31.6 to 100 nM.
Compound `CN1CCN(C(=O)c2ccc(-n3cnc(Nc4cnc(C#N)cn4)c3)cc2)CC1` [Example 144, 5-((1-(4-(4-Methylpiperazine-1-carbonyl)phenyl)-1H-imidazol-4-yl)amino)pyrazine-2-carbonitrile] yielded an IC50 on human Chk1 kinase of 100 to 316 nM.
Consider `Cc1cc(N2CCN(C)CC2)ccc1-n1cnc(Nc2cnc(C#N)cn2)c1` [Example 145, 5-((1-(2-methyl-4-(4-Methylpiperazin-1-yl)phenyl)-1H-imidazol-4-yl)amino)pyrazine-2-carbonitrile], for which the IC50 on human Chk1 kinase lay within 316 to 1000 nM.
On the same count and under the same terms, the value for `N#Cc1cnc(Nc2cn(-c3ccc(N4CC[C@@H](N5CCCC5)C4)cc3)cn2)cn1` [Example 147, (R)-5-((1-(4-([1,3′-Bipyrrolidin]-1′-yl)phenyl)-1H-imidazol-4-yl)amino)pyrazine-2-carbonitrile] was 10 to 31.6 nM; that for `CN[C@H]1CN(c2ccc(-n3cnc(Nc4cnc(C#N)cn4)c3)cc2)C[C@H]1OC` [Example 163, 5-((1-(4-((3R,4S)-3-Methoxy-4-(methylamino)pyrrolidin-1-yl)phenyl)-1H-imidazol-4-yl)amino)pyrazine-2-carbonitrile] was 10 to 31.6 nM.
Regarding `CCN1CCN(c2ccc(-n3cnc(Nc4cnc(C#N)cn4)c3)cc2)CC1` [Example 185, 5-((1-(4-(4-Ethylpiperazin-1-yl)phenyl)-1H-imidazol-4-yl)amino)pyrazine-2-carbonitrile], the IC50 at human Chk1 kinase was 10 to 31.6 nM.
